# Test results reported in US6416753B1, “Method for modulating apoptosis” (The General Hospital Corporation, priority 1996, dated 2002).
# Key:
# HeLa cells [1] = experiment: Mature IL-1β induced cell death of hydroxyurea (G1/S) arrested HeLa cells; type: cell-based; conditions: G1/S phase arrested HeLa cells
# Experimental: (§1) HeLa, HeLa/CrmA, and L929 cells were seeded (2×10^4) in a 24 well plate and grown overnight in DMEM with 10% FCS. After 12 hours, the cells were washed 3 times with serum free DMEM, and hydroxyurea (HU) (2.5 mM) (Sigma, St. Louis, Mo.) was added to the HeLa and HeLa/CrmA cells Meikrantz, W., et al., Proc. Natl. Acad. Sci. U.S.A. 91: 3754 (1994)). After five hours, IL-1Ra (40 ng/ml) was added to the appropriate wells, and one hour later either TNF-α or mature IL1β were added. Twenty-four hours later, IL-1Ra was again added to the appropriate wells, and cell death was evaluated by trypan blue exclusion 60 hours after the initial addition of HU. Each condition was done three times in duplicate and 200 cells counted per well. For the photographs cells were grown on 2 well slides, and for nuclear morphology determination cells were fixed in 4% paraformaldehyde and incubated with Hoechst dye #33258 (10 μg/ml) (Sigma, St. Louis, Mo.).
# HeLa cells [2] = experiment: TNF-α induced cell death of hydroxyurea (G1/S) arrested HeLa cells; type: cell-based; conditions: HU treated, G1/S phase arrested HeLa cells; IL-1Ra 40 ng/ml
# Experimental: as §1
# HeLa cells [3] = experiment: HeLa cell death induced by TNF-α and cycloheximide; type: cell-based; conditions: data not shown
# COS cells = experiment: Cell death of COS cells transfected with Ice-lacZ / Ich-1L-lacZ / proIL-1β, round blue cells scored; type: cell-based
# Experimental: COS cells were plated (2×10^4) in 6-well plates in DMEM with 10% FCS. After 12 hours the wells were washed with serum and antibiotic free medium, and transfected using lipofectamine with either Ice-lacZ, Ich-1L-lacZ, βactin-lacZ(1 μg) or with proIL-1β (0.5 μg) for 3 hours. The sequence for Ich-1L is shown in FIG. 7 and the sequences of human ICE and pro- IL-1β are found respectively in Thornsberry et al., Nature 356:768-774 (1992) and in J. Immunol. 137:3644-3648, 1986. The medium was then removed and DMEM with 10% FCS added. IL-1Ra (40 ng/ml) was then added to the appropriate wells, and after one hour IL-1β (100 ng/ml) was added. X-gal reaction was performed 36 hours following the transfection and percentage of round blue (dead) cells were scored (Miura, M., et al., Cell 75: 653 (1993))
# DRG neurons = experiment: Trophic factor deprivation of primary DRG neurons, healthy neurons counted; type: cell-based, mouse; conditions: for Inhibition of trophic factor withdrawal-induced apoptosis: 100 ng/ml
# Experimental: Neuronal trophic factor deprivation was assayed as follows. Post-natal day 1 mouse DRG neurons were isolated, dissociated with trypsin for one hour at 37° C., and plated in a 8 camber poly-lysine/laminin (Sigma, St. Louis, Mo.) coated slide. Wells were seeded at approximately 1000 neurons/well (8 wells/mouse). Neurons were cultured in Ham's nutrient F-12 supplemented with 20% FCS (Biowhittaker, Walkesvill, Md.), NGF (200 ng/ml) (Sigma, St. Louis, Mo.), BDNF (100 ng/ml) (Preprotech, Rocky Hill, N.J.), glutamine (2 mM), and penicillin/streptomycin. The medium was replaced daily with either trophic factor containing medium (TF(+))=20% FCS and NGF (200 ng/ml), or trophic factor deficient medium, TF(−)=serum and NGF-free medium in the presence of saturating concentration of mouse NGF monoclonal antibody (100 ng/ml) (Boehringer Mannheim, Indianapolis, Ind.), and IL-IRA (100 ng/ml unless otherwise indicated in the text). Healthy neurons were counted under a phase contrast microscope 24 and 48 hours following the media change.
# IL-1 receptor [4] = molecular target: T1, IL-1 receptor (Homo sapiens, UniProt P14778); experiment: Inhibition of 125I IL-1β receptor binding in HeLa cells; conditions: IL-1Ra added for 2 hrs at 37° C.
# T1 construct: endogenous in cells; host or cells: HeLa cells
# T1 sequence (P14778 18-569): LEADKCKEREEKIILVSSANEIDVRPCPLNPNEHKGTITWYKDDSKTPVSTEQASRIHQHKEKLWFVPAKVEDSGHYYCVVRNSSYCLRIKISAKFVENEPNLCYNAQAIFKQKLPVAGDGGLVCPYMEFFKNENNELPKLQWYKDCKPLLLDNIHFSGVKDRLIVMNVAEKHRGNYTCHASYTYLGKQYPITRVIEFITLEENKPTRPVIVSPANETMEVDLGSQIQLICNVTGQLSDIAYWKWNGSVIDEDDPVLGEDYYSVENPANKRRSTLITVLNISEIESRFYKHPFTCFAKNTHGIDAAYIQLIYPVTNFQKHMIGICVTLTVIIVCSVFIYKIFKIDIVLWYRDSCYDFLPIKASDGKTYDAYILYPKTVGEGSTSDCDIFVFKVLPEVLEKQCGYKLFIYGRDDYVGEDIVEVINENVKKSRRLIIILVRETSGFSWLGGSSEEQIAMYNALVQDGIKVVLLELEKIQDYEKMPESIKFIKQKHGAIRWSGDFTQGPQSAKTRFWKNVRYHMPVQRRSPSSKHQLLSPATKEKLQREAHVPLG
# Experimental: (§2) Hypoxia-induced apoptosis was studied as follows. HeLa and HeLa/CrmA cells (Miura, M., et al., Proc. Natl. Acad. Sci. USA. 92:8318-8322, 1995) were seeded in 35 mm dishes at a density of 6×10^4/dish in DMEM/10% FCS and grown overnight. The medium was then changed and factors were added (IL-1Ra, R & D, Minneapolis, Minn.), IL-1 antibody (Calbiochem, San Diego, Calif.), or IL-1 type-1 receptor antibody (R & D, Minneapolis, Minn.). Dishes were placed in an anaerobic chamber with a BBL GasPack Plus (Becton-Dickenson, USA), which reduced the oxygen concentration to less than 100 p.p.m. within 90 minutes. After 16 hours, cells were removed from the chamber, immediately trypsinized and scored for viability by trypan blue exclusion. Inhibition of ^125I IL-1β binding by IL-1Ra which was added for 2 hrs at 37° C. After addition of BSA (1 mg/ml) to the medium, cells were incubated at 4° C. for 15 minutes, and then ^125IL-1β (100 ng/ml) was added at 4° C. for 1 hr. For detection of ^125IL-1β binding, cells were treated with 50 mM glycine-HCl, pH 2.6 for 1 min, and quantitated by γ-counting.
# cerebral infarct = conditions: rat model; Relton & Rothwell 1992; cited from earlier work
# L929 cells = experiment: TNF-α induced cell death of L929 cells, trypan blue exclusion; type: cell-based; conditions: IL-1Ra 40 ng/ml
# Experimental: as §1, with “After” for “HeLa, HeLa/CrmA, and L929 cells were seeded (2×10^4) in a 24 well plate and grown overnight in DMEM with 10% FCS. After”, “Louis, Mo.) was added to the HeLa and HeLa/CrmA cells Meikrantz, W., et al., Proc.” left out
# HeLa cells [5] = experiment: Hypoxia-induced apoptosis of HeLa cells, viability by trypan blue exclusion; type: cell-based
# Experimental: as §2
# Hypoxia was produced as described in Example 1. IL-1β (100 ng/ml) was added as the cells were placed into the hypoxia chamber (90 min. are required to reach oxygen concentrations of 100 p.p.m.). […] Cells were then treated as above with glycine and radioactivity scored.
# IL-1 receptor [6] = molecular target: T1, IL-1 receptor; experiment: IL-1 receptor binding assay (receptor down-regulation) in HeLa cells; type: cell-based; conditions: 100 ng/ml 125I IL-1β
# Experimental: Hypoxia was produced as described in Example 1. IL-1β (100 ng/ml) was added as the cells were placed into the hypoxia chamber (90 min. are required to reach oxygen concentrations of 100 p.p.m.). IL-1 receptor binding assay: HeLa cells (10^6) were seeded in 10 cm dishes and grown overnight. Media was then exchanged containing 1 mg/ml of BSA and 100 ng/ml of ^125I IL-1β at 4° C. for 1 hr. After washing twice with cold medium, the cells were incubated with fresh warm medium at 37° C. for 0, 30, 60 and 120 minutes. Cells were then treated as above with glycine and radioactivity scored.
# HeLa and L929 = experiment: Apoptosis of healthy proliferating cells exposed to mature IL-1β alone; type: cell-based; conditions: most healthy proliferating cells including HeLa and L929
# [7] = molecular target: IL-1 type-1 receptor on HeLa cells (UniProt P14778); experiment: cell-based or functional assay
substance,measurement,setting,value
"IL-1Ra: a naturally occurring cytokine which binds to the IL-1 receptor, blocking IL-1 mediated signal transduction",Inhibition of mature IL-1β induced cell death,HeLa cells [1],inhibited
same,Inhibition of TNF-α induced HeLa cell death,HeLa cells [2],56.0%
same,Protection from death induced by TNF-α and cycloheximide,HeLa cells [3],protected
same,"Inhibition of death of COS cells expressing Ice-lacZ or Ich-1L-lacZ with proIL-1β, or with extracellular TNF-α or mature IL-1β",COS cells; IL-1Ra 40 ng/ml,significantly inhibited
same,Inhibition of neuronal apoptosis,"DRG neurons; 40 ng/ml, 24 hours",43.5%
same,Inhibition of trophic factor withdrawal-induced apoptosis,DRG neurons; 24 hours,69.2%
same,Inhibition of trophic factor withdrawal-induced apoptosis,DRG neurons; 48 hours,37.8%
same,Blocking of 125I-IL-1β binding,IL-1 receptor [4],blocks
same,Reduction of cerebral infarct size following ischemia,cerebral infarct,50%
same,Protection from TNF-α induced death,L929 cells,up to 64.9%
same,Inhibition of hypoxia-induced cell death,"HeLa cells [5]; HeLa cells, 16 hours hypoxia",inhibited hypoxia-induced cell death
"IL-1β: mature 17.5 kD interleukin-1β, cytokine produced by ICE cleavage of prointerleukin-1β",Cell death induced by exogenous mature IL-1β,HeLa cells [1]; 100 ng/ml,83.7%
same,Induction of apoptosis in COS cells by the exogenous cytokine alone,COS cells; COS cells without Ice/Ich-1L transfection,did not induce apoptosis
same,Induction of cell death in Ice-lacZ or Ich-1L-lacZ transfected COS cells,"COS cells; extracellular cytokine, 36 hours after transfection",efficiently induced cell death
same,Down-regulation of the IL-1 receptor,IL-1 receptor [6],significantly down-regulated
same,Survival of HeLa cells preincubated with exogenous IL-1β under hypoxia,"HeLa cells [5]; IL-1β 100 ng/ml added as cells were placed into the hypoxia chamber, control 10.1%",58.7%
same,Induction of apoptosis of healthy proliferating cells,HeLa and L929,does not induce apoptosis
mature IL-1β (from UniProt P01584 117-269) (ligand),cell death of G1/S phase arrested (HU treated) HeLa cells treated with exogenous mature IL-1β,[7],83.7%
same,survival of HeLa cells under hypoxia after preincubation with exogenous IL-1β (100 ng/ml),[7],58.7%
